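Five compound concentrations were applied to cells in 96-well plates for 48 hours; endpoints were derived by simple linear interpolation of the resulting dose-response curve. The concentration for 50% growth inhibition is given as GI50. TGI denotes the concentration required for complete inhibition of growth.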
Tests used:
Test in all cases: growth of human tumour cells (NCI), 48 h
HT29 colon = tested on: HT29 colon
IGROV1 ovarian = tested on: IGROV1 ovarian
RPMI-8226 leukemia = tested on: RPMI-8226 leukemia
EKVX NSCLC = tested on: EKVX NSCLC
OVCAR-5 ovarian = tested on: OVCAR-5 ovarian
U251 CNS = tested on: U251 CNS
T-47D breast = tested on: T-47D breast
SK-MEL-28 melanoma = tested on: SK-MEL-28 melanoma
OVCAR-4 ovarian = tested on: OVCAR-4 ovarian
SR leukemia = tested on: SR leukemia
BT-549 breast = tested on: BT-549 breast
HCT-15 colon = tested on: HCT-15 colon
SN12C renal = tested on: SN12C renal
OVCAR-8 ovarian = tested on: OVCAR-8 ovarian
HL-60(TB) leukemia = tested on: HL-60(TB) leukemia
MOLT-4 leukemia = tested on: MOLT-4 leukemia
MDA-MB-435 = tested on: MDA-MB-435
SK-MEL-2 melanoma = tested on: SK-MEL-2 melanoma
M14 melanoma = tested on: M14 melanoma
NCI-H226 lung = tested on: NCI-H226 lung
HCC-2998 colon = tested on: HCC-2998 colon
786-0 renal = tested on: 786-0 renal
SK-MEL-5 melanoma = tested on: SK-MEL-5 melanoma
MALME-3M melanoma = tested on: MALME-3M melanoma
RXF 393 renal = tested on: RXF 393 renal
COLO 205 colon = tested on: COLO 205 colon
SF-268 CNS = tested on: SF-268 CNS
NCI-H460 lung = tested on: NCI-H460 lung
MDA-MB-231 breast = tested on: MDA-MB-231 breast
UO-31 renal = tested on: UO-31 renal
LOX IMVI melanoma = tested on: LOX IMVI melanoma
ACHN renal = tested on: ACHN renal
K-562 leukemia = tested on: K-562 leukemia
HS 578T breast = tested on: HS 578T breast
SF-295 CNS = tested on: SF-295 CNS
SNB-75 CNS = tested on: SNB-75 CNS
SW-620 colon = tested on: SW-620 colon
OVCAR-3 ovarian = tested on: OVCAR-3 ovarian
CCRF-CEM leukemia = tested on: CCRF-CEM leukemia
MCF7 breast = tested on: MCF7 breast
SF-539 CNS = tested on: SF-539 CNS
KM12 colon = tested on: KM12 colon
PC-3 prostate = tested on: PC-3 prostate
SNB-19 CNS = tested on: SNB-19 CNS
A498 renal = tested on: A498 renal
HCT-116 colon = tested on: HCT-116 colon
A549 NSCLC = tested on: A549 NSCLC
SK-OV-3 ovarian = tested on: SK-OV-3 ovarian
NCI-H23 lung = tested on: NCI-H23 lung
NCI/ADR-RES ovarian = tested on: NCI/ADR-RES ovarian
NCI-H522 lung = tested on: NCI-H522 lung
HOP-62 NSCLC = tested on: HOP-62 NSCLC
TK-10 renal = tested on: TK-10 renal
DU-145 prostate = tested on: DU-145 prostate
CAKI-1 renal = tested on: CAKI-1 renal
UACC-62 melanoma = tested on: UACC-62 melanoma
UACC-257 melanoma = tested on: UACC-257 melanoma
HOP-92 NSCLC = tested on: HOP-92 NSCLC

For `CCn1cnc2c(Nc3cccc(Cl)c3)nc(N[C@@H]3CCCC[C@@H]3N)nc21`, the GI50 (HT29 colon) was 1.91 µM, the TGI (HT29 colon) was 5.87 µM and the GI50 (IGROV1 ovarian) was 2 µM. It also gave a TGI (IGROV1 ovarian) of 8.58 µM, a GI50 (RPMI-8226 leukemia) of 1.8 µM and a TGI (RPMI-8226 leukemia) of 4.39 µM. For the same compound, the GI50 (EKVX NSCLC) was 1.6 µM, the TGI (EKVX NSCLC) was 3.92 µM and the GI50 (OVCAR-5 ovarian) was 1.81 µM. It also gave a TGI (OVCAR-5 ovarian) of 7.92 µM, a GI50 (U251 CNS) of 1.37 µM and a TGI (U251 CNS) of 3.3 µM. It also gave a GI50 (T-47D breast) of 1.98 µM, a TGI (T-47D breast) of 5.16 µM and a GI50 (SK-MEL-28 melanoma) of 1.68 µM. It also gave a TGI (SK-MEL-28 melanoma) of 3.42 µM, a GI50 (OVCAR-4 ovarian) of 1.68 µM and a TGI (OVCAR-4 ovarian) of 5.43 µM. For the same compound, the GI50 (SR leukemia) was 0.699 µM, the TGI (SR leukemia) was 3.94 µM and the GI50 (BT-549 breast) was 1.73 µM. For the same compound, the TGI (BT-549 breast) was 3.73 µM, the GI50 (HCT-15 colon) was 2.08 µM and the TGI (HCT-15 colon) was 8.75 µM. The GI50 (SN12C renal) was 2.08 µM, the TGI (SN12C renal) was 7.62 µM and the GI50 (OVCAR-8 ovarian) was 2.35 µM. For the same compound, the TGI (OVCAR-8 ovarian) was 9.53 µM, the GI50 (HL-60(TB) leukemia) was 1.78 µM and the TGI (HL-60(TB) leukemia) was 3.93 µM. It also gave a GI50 (MOLT-4 leukemia) of 2.24 µM, a TGI (MOLT-4 leukemia) of 7.27 µM and a GI50 (MDA-MB-435) of 1.42 µM. For the same compound, the TGI (MDA-MB-435) was 2.82 µM, the GI50 (SK-MEL-2 melanoma) was 1.65 µM and the TGI (SK-MEL-2 melanoma) was 3.43 µM. The GI50 (M14 melanoma) was 1.44 µM, the TGI (M14 melanoma) was 2.98 µM and the GI50 (NCI-H226 lung) was 2 µM. It also gave a TGI (NCI-H226 lung) of 5.95 µM, a GI50 (HCC-2998 colon) of 1.77 µM and a TGI (HCC-2998 colon) of 4.35 µM. The GI50 (786-0 renal) was 1.83 µM, the TGI (786-0 renal) was 5.05 µM and the GI50 (SK-MEL-5 melanoma) was 1.68 µM. For the same compound, the TGI (SK-MEL-5 melanoma) was 3.11 µM, the GI50 (MALME-3M melanoma) was 1.57 µM and the TGI (MALME-3M melanoma) was 3.21 µM. It also gave a GI50 (RXF 393 renal) of 1.35 µM, a TGI (RXF 393 renal) of 2.89 µM and a GI50 (COLO 205 colon) of 1.19 µM. It also gave a TGI (COLO 205 colon) of 2.6 µM, a GI50 (SF-268 CNS) of 1.65 µM and a TGI (SF-268 CNS) of 3.89 µM. The GI50 (NCI-H460 lung) was 1.23 µM, the TGI (NCI-H460 lung) was 3.7 µM and the GI50 (MDA-MB-231 breast) was 1.83 µM. The TGI (MDA-MB-231 breast) was 5.37 µM, the GI50 (UO-31 renal) was 1.6 µM and the TGI (UO-31 renal) was 4.04 µM. It also gave a GI50 (LOX IMVI melanoma) of 1.24 µM, a TGI (LOX IMVI melanoma) of 2.57 µM and a GI50 (ACHN renal) of 1.34 µM. For the same compound, the TGI (ACHN renal) was 3.6 µM, the GI50 (K-562 leukemia) was 1.51 µM and the TGI (K-562 leukemia) was 4.18 µM. For the same compound, the GI50 (HS 578T breast) was 2.36 µM, the TGI (HS 578T breast) was 7.99 µM and the GI50 (SF-295 CNS) was 1.55 µM. It also gave a TGI (SF-295 CNS) of 4.51 µM, a GI50 (SNB-75 CNS) of 0.745 µM and a TGI (SNB-75 CNS) of 2.23 µM. The GI50 (SW-620 colon) was 1.78 µM, the TGI (SW-620 colon) was 5.77 µM and the GI50 (OVCAR-3 ovarian) was 1.18 µM. It also gave a TGI (OVCAR-3 ovarian) of 4.4 µM, a GI50 (CCRF-CEM leukemia) of 2.88 µM and a TGI (CCRF-CEM leukemia) of 9.66 µM. For the same compound, the GI50 (MCF7 breast) was 0.824 µM, the TGI (MCF7 breast) was 3.23 µM and the GI50 (SF-539 CNS) was 1.42 µM. The TGI (SF-539 CNS) was 2.8 µM, the GI50 (KM12 colon) was 0.733 µM and the TGI (KM12 colon) was 2.67 µM. The GI50 (PC-3 prostate) was 1.3 µM, the TGI (PC-3 prostate) was 3.36 µM and the GI50 (SNB-19 CNS) was 2.07 µM. It also gave a TGI (SNB-19 CNS) of 8.17 µM, a GI50 (A498 renal) of 1.9 µM and a TGI (A498 renal) of 3.93 µM. The GI50 (HCT-116 colon) was 1.12 µM, the TGI (HCT-116 colon) was 2.87 µM and the GI50 (A549 NSCLC) was 2.09 µM. It also gave a TGI (A549 NSCLC) of 8.6 µM, a GI50 (SK-OV-3 ovarian) of 3.85 µM and a TGI (SK-OV-3 ovarian) of 10.8 µM. It also gave a GI50 (NCI-H23 lung) of 1.38 µM, a TGI (NCI-H23 lung) of 3.59 µM and a GI50 (NCI/ADR-RES ovarian) of 2.04 µM. It also gave a TGI (NCI/ADR-RES ovarian) of 6.71 µM, a GI50 (NCI-H522 lung) of 1.64 µM and a TGI (NCI-H522 lung) of 3.8 µM. It also gave a GI50 (HOP-62 NSCLC) of 1.52 µM, a TGI (HOP-62 NSCLC) of 3.71 µM and a GI50 (TK-10 renal) of 1.95 µM. For the same compound, the TGI (TK-10 renal) was 5.06 µM, the GI50 (DU-145 prostate) was 1.01 µM and the TGI (DU-145 prostate) was 3.15 µM. For the same compound, the GI50 (CAKI-1 renal) was 2.6 µM, the TGI (CAKI-1 renal) was 10.1 µM and the GI50 (UACC-62 melanoma) was 1.49 µM. The TGI (UACC-62 melanoma) was 3.59 µM, the GI50 (UACC-257 melanoma) was 1.57 µM and the TGI (UACC-257 melanoma) was 3.11 µM. The GI50 (HOP-92 NSCLC) was 1.04 µM and the TGI (HOP-92 NSCLC) was 3.57 µM.

From PubChem BioAssay (NCI)
